Assay results from patent publication US6992079B2, “Substituted 11-phenyl-dibenzazepine compounds useful for the treatment or prevention of diseases characterized by abnormal cell proliferation” (President Fellows of Harvard College, priority 1997, dated 2006).
Where two headings read alike, the source gives them in different places.

Assays:
[1] = tested on: NIH 3T3 mouse fibroblast cells; experiment: Mitogenic assay (mitogen-induced cell proliferation); assay type: cell-based; conditions: Mus musculus, NIH3T3, 10 μM compound
[2] = tested on: squamous cell carcinoma (KLN-205) cells; experiment: Tumor growth in murine squamous cell carcinoma model; assay type: in vivo, mouse; conditions: KLN-205; subcutaneous injection or oral administration of 80 mg/kg/day for 30 days
[3] = tested on: H209 small lung cell carcinoma; experiment: Mouse xenograft tumor growth; assay type: in vivo, SCID mice
[4] = tested on: A2058 metastatic melanoma; experiment: Mouse xenograft tumor growth; assay type: in vivo, CD-1 nude mice
Procedure: NCI-A2058 human melanoma cell line was grown as monolayer culture in Minimum essential medium (D-MEM) supplemented with 10% fetal bovine serum (FBS), 0.1 mM non-essential amino acid, 1.0 mM sodium pyruvate, 100U/ml penicillin, 100 μg/ml streptomycin and 0.25 μg/ml amphotericin B and L-alanyl-1-glutamine (2 mM) at 37° C. in an atmosphere of 5% CO2 in air. The tumor cells were routinely subcultured twice weekly by trypsin-EDTA treatment. The cells were harvested from subconfluent logarithmically growing culture by treatment with typsin-EDTA and counted for tumor inoculation.
An acclimation period of at least 7 days were allowed between animal receipt and commence of tumor inoculation. When the female CD-1 nude mice were more than 6-7 weeks of age (20-25 g), each mouse was subcutaneously injected with 5.0×10^6 NCI-A2058 human melanoma cells in 0.1 ml of PBS solution at the right flank of the mice to induce tumor growth.

[5] = tested on: RL-60 (TS); experiment: In-Vitro Testing SRB panel: Leukemia; assay type: cell-based
[6] = tested on: SR; experiment: In-Vitro Testing SRB panel: Leukemia; assay type: cell-based
[7] = tested on: NCI-H226; assay type: cell-based
[8] = tested on: SF-268; experiment: In-Vitro Testing SRB panel: CNS Cancer; assay type: cell-based
[9] = tested on: SK-MEL-5; experiment: In-Vitro Testing SRB panel: Melanoma; assay type: cell-based
[10] = tested on: UACC-257; experiment: In-Vitro Testing SRB panel: Melanoma; assay type: cell-based
[11] = tested on: UACC-62; experiment: In-Vitro Testing SRB panel: Melanoma; assay type: cell-based
[12] = tested on: SK-OV-3; experiment: In-Vitro Testing SRB panel: Ovarian Cancer; assay type: cell-based
[13] = tested on: 786-0; experiment: In-Vitro Testing SRB panel: Renal Cancer; assay type: cell-based
[14] = tested on: CARI-1; experiment: In-Vitro Testing SRB panel: Renal Cancer; assay type: cell-based
[15] = tested on: NCI/ADR-RES; experiment: In-Vitro Testing SRB panel: Breast Cancer; assay type: cell-based
[16] = tested on: MDA-MB-231/ATCC; experiment: In-Vitro Testing SRB panel: Breast Cancer; assay type: cell-based
[17] = tested on: ERVX
[18] = Homo sapiens, read-out: LC50 (the source's name)

For COc1ccc2c(c1)CN(C(=O)c1ccc([N+](=O)[O-])cc1)c1ccc(Cl)cc1C2c1ccccc1Cl (stereo not drawn) [Compound 30], the inhibition at 10 µM [1] was 99%, the tumor growth [2] was “significantly inhibited tumor growth” and the tumor growth [3] was “showed inhibition of tumor growth”. The tumor growth [4] was “showed inhibition of tumor growth”, the GI50 ([5]; Homo sapiens) was 0.297 µM and the CC50 ([5]; Homo sapiens, RL-60 (TB), read-out: LC50 (the source's name)) was over 100 µM. The TGI ([5]; RL-60 (TB)) was over 1.00E−04 Molar, the “Percent Growth” value ([5]; RL-60 (TB), Log10 concentration −4.0 Molar) was 29% and the “Percent Growth” value ([5]; RL-60 (TB), Log10 concentration −5.0 Molar) was 22%. For the same compound, the “Percent Growth” value ([5]; RL-60 (TB), Log10 concentration −6.0 Molar) was 35%, the “Percent Growth” value ([5]; RL-60 (TB), Log10 concentration −7.0 Molar) was 64% and the “Percent Growth” value ([5]; RL-60 (TB), Log10 concentration −8.0 Molar) was 94%. The TGI [6] was over 1.00E−04 Molar, the GI50 ([6]; Homo sapiens) was 0.455 µM and the CC50 [6, 18] was over 100 µM. For the same compound, the “Percent Growth” value ([6]; Log10 concentration −4.0 Molar) was 23%, the “Percent Growth” value ([6]; Log10 concentration −5.0 Molar) was 12% and the “Percent Growth” value ([6]; Log10 concentration −6.0 Molar) was 32%. For the same compound, the “Percent Growth” value ([6]; Log10 concentration −7.0 Molar) was 85%, the “Percent Growth” value ([6]; Log10 concentration −8.0 Molar) was 77% and the GI50 ([7]; Homo sapiens, NCI-H226) was 3.98 µM. For the same compound, the CC50 ([7]; Homo sapiens, NCI-H226, read-out: LC50 (the source's name)) was over 100 µM, the TGI ([7]; NCI-H226) was over 1.00E−04 Molar and the “Percent Growth” value ([7]; NCI-H226, Log10 concentration −4.0 Molar) was 34%. For the same compound, the “Percent Growth” value ([7]; NCI-H226, Log10 concentration −5.0 Molar) was 35%, the “Percent Growth” value ([7]; NCI-H226, Log10 concentration −6.0 Molar) was 73% and the “Percent Growth” value ([7]; NCI-H226, Log10 concentration −7.0 Molar) was 79%. For the same compound, the “Percent Growth” value ([7]; NCI-H226, Log10 concentration −8.0 Molar) was 83%, the GI50 ([8]; Homo sapiens, SF-268) was 3.08 µM and the CC50 ([8]; Homo sapiens, SF-268, read-out: LC50 (the source's name)) was over 100 µM. The TGI ([8]; SF-268) was over 1.00E−04 Molar, the “Percent Growth” value ([8]; SF-268, Log10 concentration −4.0 Molar) was 21% and the “Percent Growth” value ([8]; SF-268, Log10 concentration −5.0 Molar) was 30%. The “Percent Growth” value ([8]; SF-268, Log10 concentration −6.0 Molar) was 69%, the “Percent Growth” value ([8]; SF-268, Log10 concentration −7.0 Molar) was 115% and the “Percent Growth” value ([8]; SF-268, Log10 concentration −8.0 Molar) was 104%. The GI50 ([9]; Homo sapiens, SK-MEL-5) was 3.95 µM, the CC50 ([9]; Homo sapiens, SK-MEL-5, read-out: LC50 (the source's name)) was over 100 µM and the TGI ([9]; SK-MEL-5) was over 1.00E−04 Molar. For the same compound, the “Percent Growth” value ([9]; SK-MEL-5, Log10 concentration −4.0 Molar) was 12%, the “Percent Growth” value ([9]; SK-MEL-5, Log10 concentration −5.0 Molar) was 26% and the “Percent Growth” value ([9]; SK-MEL-5, Log10 concentration −6.0 Molar) was 85%. For the same compound, the “Percent Growth” value ([9]; SK-MEL-5, Log10 concentration −7.0 Molar) was 90%, the “Percent Growth” value ([9]; SK-MEL-5, Log10 concentration −8.0 Molar) was 93% and the GI50 ([10]; Homo sapiens, UACC-257) was 1.86 µM. For the same compound, the CC50 ([10]; Homo sapiens, UACC-257, read-out: LC50 (the source's name)) was over 100 µM, the TGI ([10]; UACC-257) was over 1.00E−04 Molar and the “Percent Growth” value ([10]; UACC-257, Log10 concentration −4.0 Molar) was 13%. The “Percent Growth” value ([10]; UACC-257, Log10 concentration −5.0 Molar) was 20%, the “Percent Growth” value ([10]; UACC-257, Log10 concentration −6.0 Molar) was 61% and the “Percent Growth” value ([10]; UACC-257, Log10 concentration −7.0 Molar) was 91%. The “Percent Growth” value ([10]; UACC-257, Log10 concentration −8.0 Molar) was 99%, the GI50 ([11]; Homo sapiens, UACC-62) was over 100 µM and the CC50 ([11]; Homo sapiens, UACC-62, read-out: LC50 (the source's name)) was over 100 µM. For the same compound, the TGI ([11]; UACC-62) was over 1.00E−04 Molar, the “Percent Growth” value ([11]; UACC-62, Log10 concentration −4.0 Molar) was 56% and the “Percent Growth” value ([11]; UACC-62, Log10 concentration −5.0 Molar) was 52%. For the same compound, the “Percent Growth” value ([11]; UACC-62, Log10 concentration −6.0 Molar) was 58%, the “Percent Growth” value ([11]; UACC-62, Log10 concentration −7.0 Molar) was 93% and the “Percent Growth” value ([11]; UACC-62, Log10 concentration −8.0 Molar) was 97%. The GI50 ([12]; Homo sapiens, SK-OV-3) was over 100 µM, the CC50 ([12]; Homo sapiens, SK-OV-3, read-out: LC50 (the source's name)) was over 100 µM and the TGI ([12]; SK-OV-3) was over 1.00E−04 Molar. The “Percent Growth” value ([12]; SK-OV-3, Log10 concentration −4.0 Molar) was 66%, the “Percent Growth” value ([12]; SK-OV-3, Log10 concentration −5.0 Molar) was 76% and the “Percent Growth” value ([12]; SK-OV-3, Log10 concentration −6.0 Molar) was 88%. For the same compound, the “Percent Growth” value ([12]; SK-OV-3, Log10 concentration −7.0 Molar) was 95%, the “Percent Growth” value ([12]; SK-OV-3, Log10 concentration −8.0 Molar) was 93% and the TGI ([13]; 786-0) was over 1.00E−04 Molar. For the same compound, the “Percent Growth” value ([13]; 786-0, Log10 concentration −4.0 Molar) was 28%, the “Percent Growth” value ([13]; 786-0, Log10 concentration −5.0 Molar) was 11% and the “Percent Growth” value ([13]; 786-0, Log10 concentration −6.0 Molar) was 92%. The “Percent Growth” value ([13]; 786-0, Log10 concentration −7.0 Molar) was 98%, the “Percent Growth” value ([13]; 786-0, Log10 concentration −8.0 Molar) was 98% and the GI50 ([13]; Homo sapiens, 786-0) was 3.28 µM. For the same compound, the CC50 ([13]; Homo sapiens, 786-0, read-out: LC50 (the source's name)) was over 100 µM, the TGI ([14]; CARI-1) was over 1.00E−04 Molar and the “Percent Growth” value ([14]; CARI-1, Log10 concentration −4.0 Molar) was 59%. For the same compound, the “Percent Growth” value ([14]; CARI-1, Log10 concentration −5.0 Molar) was 68%, the “Percent Growth” value ([14]; CARI-1, Log10 concentration −6.0 Molar) was 71% and the “Percent Growth” value ([14]; CARI-1, Log10 concentration −7.0 Molar) was 108%. The “Percent Growth” value ([14]; CARI-1, Log10 concentration −8.0 Molar) was 141%, the GI50 ([14]; Homo sapiens) was over 100 µM and the CC50 ([14]; Homo sapiens, CARI-1, read-out: LC50 (the source's name)) was over 100 µM. For the same compound, the TGI [15] was over 1.00E−04 Molar, the GI50 ([15]; Homo sapiens) was 62.4 µM and the CC50 [15, 18] was over 100 µM. The “Percent Growth” value ([15]; Log10 concentration −4.0 Molar) was 47%, the “Percent Growth” value ([15]; Log10 concentration −5.0 Molar) was 61% and the “Percent Growth” value ([15]; Log10 concentration −6.0 Molar) was 104%. The “Percent Growth” value ([15]; Log10 concentration −7.0 Molar) was 117%, the “Percent Growth” value ([15]; Log10 concentration −8.0 Molar) was 124% and the GI50 ([16]; Homo sapiens, MDA-MB-231) was over 100 µM. For the same compound, the CC50 ([16]; Homo sapiens, MDA-MB-231/ATCC, read-out: LC50 (the source's name)) was over 100 µM, the TGI ([16]; MDA-MB-231/ATCC) was over 1.00E−04 Molar and the “Percent Growth” value ([16]; MDA-MB-231/ATCC, Log10 concentration −4.0 Molar) was 54%. The “Percent Growth” value ([16]; MDA-MB-231/ATCC, Log10 concentration −5.0 Molar) was 54%, the “Percent Growth” value ([16]; MDA-MB-231/ATCC, Log10 concentration −6.0 Molar) was 89% and the “Percent Growth” value ([16]; MDA-MB-231/ATCC, Log10 concentration −7.0 Molar) was 92%. The “Percent Growth” value ([16]; MDA-MB-231/ATCC, Log10 concentration −8.0 Molar) was 106%, the TGI ([17]; ERVX) was over 1.00E−04 Molar and the “Percent Growth” value ([17]; ERVX, Log10 concentration −4.0 Molar) was 18%. The “Percent Growth” value ([17]; ERVX, Log10 concentration −5.0 Molar) was 23%, the “Percent Growth” value ([17]; ERVX, Log10 concentration −6.0 Molar) was 78% and the “Percent Growth” value ([17]; ERVX, Log10 concentration −7.0 Molar) was 96%. The “Percent Growth” value ([17]; ERVX, Log10 concentration −8.0 Molar) was 92%, the GI50 ([17]; Homo sapiens) was 3.24 µM and the CC50 ([17]; Homo sapiens, read-out: LC50) was over 100 µM.
